Activity calls are given as the source filed them. The calls are words filed in the database; no cut-off is given here.
Columns and labels:
Mus musculus [1] = experiment: Inhibition of nicotine-induced response in CF-1 mouse at 100 mg/kg, ip; format: functional, organism-based; set-up: dose 100 mg/kg
Mus musculus [2] = experiment: Anticonvulsant activity in CF-1 mouse assessed as reduction of strychnine-induced response at 100 mg/kg, ip; format: functional, organism-based; set-up: dose 100 mg/kg
Mus musculus [3] = experiment: Anticonvulsant activity in CF-1 mouse assessed as reduction of pentylenetetrazole-induced response at 100 mg/kg, ip; format: functional, organism-based; set-up: dose 100 mg/kg
Mus musculus [4] = experiment: Reduction in hypoxic stress in CF-1 mouse at 100 mg/kg, ip; format: functional, organism-based; set-up: dose 100 mg/kg
Mus musculus [5] = experiment: Inhibition of nicotine-induced response in ip dosed CF-1 mouse; format: functional; conditions: CF-1, ip
Mus musculus [6] = experiment: Anticonvulsant activity in ip dosed CF-1 mouse assessed as reduction of strychnine-induced response; format: functional; conditions: CF-1, ip
Mus musculus [7] = experiment: Anticonvulsant activity in ip dosed CF-1 mouse assessed as reduction of pentylenetetrazole-induced response; format: functional; conditions: CF-1, ip
Mus musculus [8] = experiment: Reduction in hypoxic stress in ip dosed CF-1 mouse; format: functional; conditions: CF-1, ip

Row | Compound | inhibition (Mus musculus [1]) | Activity (Mus musculus [2]) | Activity (Mus musculus [3]) | Activity (Mus musculus [4]) | ED50 (Mus musculus [5]) | ED50 (Mus musculus [6]) | ED50 (Mus musculus [7]) | ED50 (Mus musculus [8])
1 | O=C1Cc2nnc(CCl)n2-c2ccc(Cl)cc2N1c1ccccc1 | inactive | inactive | inactive | inactive | – | – | – | –
2 | Cc1nnc2n1-c1ccc(Cl)cc1N(c1ccccc1)C(=O)C2 | – | – | – | – | 5 mg/kg | 28 mg/kg | 7 mg/kg | 60 mg/kg
3 | CN(C)Cc1nnc2n1-c1ccc(Cl)cc1N(c1ccccc1)C(=O)C2 | – | – | – | – | 89 mg/kg | – | 25 mg/kg | –
4 | CNC1=Nc2ccc(Cl)cc2C(c2ccccc2)=[N+]([O-])C1 [CHLORDIAZEPOXIDE] | – | – | – | – | 1 mg/kg | 13 mg/kg | 2.6 mg/kg | 10.5 mg/kg

— ChEMBL document CHEMBL3272002, “Central nervous system depressants. 13. s-Triazolo-1,5-benzodiazepin-5-ones” (1976)
